These results are taken from US20130142831A1, “COMPOUNDS FOR INFLAMMATION AND IMMUNE-RELATED USES” (Synta Pharmaceuticals Corp., priority 2004, published 2013).

This experiment relates to IL-2 production. The experiment in a line: Inhibition of IL-2 production in PHA-activated Jurkat cells. In kind it is cell-based. Conditions: Homo sapiens, PHA 2.5 μg/mL, 20 hours. Put shortly: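 Jurkat cells (0.5 million/well, 1% FBS) were preincubated with compound for 10 min, then stimulated with PHA (2.5 μg/mL final) for 20 h at 37 °C. Supernatant IL-2 was measured by ELISA. IC50 is the concentration giving 50% inhibition of maximal stimulated IL-2 relative to a non-stimulated control.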

Consider `COc1ccc2c(c1)nc(C(F)(F)F)n2-c1ccc(NC(=O)c2ccccc2[N+](=O)[O-])cc1` [Compound 107, 2-Nitro-N-[4-(2-trifluoromethyl-5-methoxy-benzoimidazol-1-yl)-phenyl]-benzamide], for which the IC50 (bins given in nM) is less than 100 nM. Same read-out and setting: with `COc1ccc2c(c1)nc(C(F)(F)F)n2-c1ccc(NC(=O)c2ccc(Cl)cc2)cc1` [Compound 108, 4-Chloro-N-[4-(2-trifluoromethyl-5-methoxy-benzoimidazol-1-yl)-phenyl]-benzamide] the figure was less than 100 nM; with `COc1ccc2c(c1)nc(C(F)(F)F)n2-c1ccc(NC(=O)c2cccc(Cl)c2)cc1` [Compound 109, 3-Chloro-N-[4-(2-trifluoromethyl-5-methoxy-benzoimidazol-1-yl)-phenyl]-benzamide], less than 100 nM; with `COc1ccc2c(c1)nc(C(F)(F)F)n2-c1ccc(NC(=O)c2ccc(F)c(F)c2)cc1` [Compound 110, 3,4-Difluoro-N-[4-(2-trifluoromethyl-5-methoxy-benzoimidazol-1-yl)-phenyl]-benzamide], less than 100 nM.

`COc1ccc2c(c1)nc(C(F)(F)F)n2-c1ccc(NC(=O)c2ccccc2)cc1` [Compound 111, N-[4-(2-trifluoromethyl-5-methoxy-benzoimidazol-1-yl)-phenyl]-benzamide] returned an IC50 (bins given in nM) of less than 100 nM. As to `CC(C)Oc1ccc2c(c1)nc(C(F)(F)F)n2-c1ccc(NC(=O)c2cccc(F)c2F)cc1` [Compound 112, 2,3-Difluoro-N-[4-(2-trifluoromethyl-5-isopropoxy-benzoimidazol-1-yl)-phenyl]-benzamide], for the setting “bins given in nM”, the IC50 is less than 100 nM. As for `NC(=O)c1ccc2c(c1)nc(C(F)(F)F)n2-c1ccc(NC(=O)c2cccc(F)c2F)cc1` [Compound 113, 2,3-Difluoro-N-[4-(2-trifluoromethyl-5-carbamoyl-benzoimidazol-1-yl)-phenyl]-benzamide], the IC50 (bins given in nM) is less than 100 nM. As to `COc1ccc2c(c1)nc(C(F)(F)F)n2-c1ccc(NC(=O)c2ccncc2)cc1` [Compound 114, N-[4-(2-trifluoromethyl-5-methoxy-benzoimidazol-1-yl)-phenyl]-isonicotinamide], under “bins given in nM”, the IC50 is less than 100 nM. `COc1ccc2c(c1)nc(C(F)(F)F)n2-c1ccc(NC(=O)c2ccccc2I)cc1` [Compound 115, 2-Iodo-N-[4-(2-trifluoromethyl-5-methoxy-benzoimidazol-1-yl)-phenyl]-benzamide] had an IC50 (bins given in nM) of less than 100 nM.

Under “bins given in nM”, `COc1ccc2c(c1)nc(C(F)(F)F)n2-c1ccc(NC(=O)CC(C)C)cc1` [Compound 116, 3-Methyl-N-[4-(2-trifluoromethyl-5-methoxy-benzoimidazol-1-yl)-phenyl]-butyramide] registered an IC50 of less than 100 nM. Still for that read-out and setting: with `COc1ccc2c(c1)nc(C(F)(F)F)n2-c1ccc(NC(=O)c2cc(Cl)cc(Cl)c2)cc1` [Compound 117, 3,5-Dichloro-N-[4-(2-trifluoromethyl-5-methoxy-benzoimidazol-1-yl)-phenyl]-benzamide] the figure was less than 100 nM; with `COc1ccc2c(c1)nc(C(F)(F)F)n2-c1ccc(NC(=O)c2cccc(Br)c2)cc1` [Compound 118, 3-Bromo-N-[4-(2-trifluoromethyl-5-methoxy-benzoimidazol-1-yl)-phenyl]-benzamide], less than 100 nM; with `COc1ccc2c(c1)nc(C(F)(F)F)n2-c1ccc(NC(=O)c2ccc(Br)cc2)cc1` [Compound 119, 4-Bromo-N-[4-(2-trifluoromethyl-5-methoxy-benzoimidazol-1-yl)-phenyl]-benzamide], less than 100 nM.

The compound `COc1ccc2c(c1)nc(C(F)(F)F)n2-c1ccc(NC(=O)c2ccco2)cc1` [Compound 120, Furan-2-carboxylic acid {N-[4-(2-trifluoromethyl-5-methoxy-benzoimidazol-1-yl)-phenyl]}-amide] had an IC50 (bins given with μM limit) of more than 1000 nM. Take `COc1ccc2c(c1)nc(C(F)(F)F)n2-c1ccc(NC(=O)C2CCCN2C(=O)C(F)(F)F)cc1` (centres unmarked) [Compound 121, 1-(2,2,2-Trifluoroacetyl)-N-[4-(2-trifluoromethyl-5-methoxy-benzoimidazol-1-yl)-phenyl]-pyrrolidine-2-carboxylic acid amide]: the IC50 (bins given with μM limit) is more than 1000 nM. Still for that read-out and setting: the value for `C=CC(=O)Nc1ccc(-n2c(C(F)(F)F)nc3cc(OC)ccc32)cc1` [Compound 122, N-[4-(2-trifluoromethyl-5-methoxy-benzoimidazol-1-yl)-phenyl]-acrylamide] was more than 1000 nM; that for `COc1ccc2c(c1)nc(C(F)(F)F)n2-c1ccc(NC(=O)COCc2ccccc2)cc1` [Compound 123, 2-Benzyloxy-N-[4-(2-trifluoromethyl-5-methoxy-benzoimidazol-1-yl)-phenyl]-acetamide] was more than 1000 nM. On to `COc1ccc2c(c1)nc(C(F)(F)F)n2-c1ccc(NC(=O)CSc2ccccc2)cc1` [Compound 124, 2-Phenylsulfanyl-N-[4-(2-trifluoromethyl-5-methoxy-benzoimidazol-1-yl)-phenyl]-acetamide], for which the IC50 (bins given with μM limit) was more than 1000 nM. As to `CCOC(=O)CCC(=O)Nc1ccc(-n2c(C(F)(F)F)nc3cc(OC)ccc32)cc1` [Compound 125, N-[4-(2-trifluoromethyl-5-methoxy-benzoimidazol-1-yl)-phenyl]-succinamic acid ethyl ester], the IC50 (bins given with μM limit) was more than 1000 nM. `COc1ccc2c(c1)nc(C(F)(F)F)n2-c1ccc(NC(=O)c2ccccc2Cl)cc1` [Compound 126, 2-Chloro-N-[4-(2-trifluoromethyl-5-methoxy-benzoimidazol-1-yl)-phenyl]-benzamide]: for the setting “bins given with μM limit”, the IC50 was more than 1000 nM. Same read-out and setting: the value for `COc1ccc2c(c1)nc(C(F)(F)F)n2-c1ccc(NC(=O)c2cc(C(F)(F)F)ccc2C(F)(F)F)cc1` [Compound 127, 2,5-Di-(trifluoromethyl)-N-[4-(2-trifluoromethyl-5-methoxy-benzoimidazol-1-yl)-phenyl]-benzamide] was more than 1000 nM. As to `COc1ccc2c(c1)nc(C(F)(F)F)n2-c1ccc(NC(=O)c2ccccc2OC)cc1` [Compound 128, 2-Methoxy-N-[4-(2-trifluoromethyl-5-methoxy-benzoimidazol-1-yl)-phenyl]-benzamide], the IC50 (bins given with μM limit) was more than 1000 nM. As for `COc1ccc2c(c1)nc(C(F)(F)F)n2-c1ccc(NC(=O)c2cc(C(F)(F)F)cc(C(F)(F)F)c2)cc1` [Compound 129, 3,5-Di-(trifluoromethyl)-N-[4-(2-trifluoromethyl-5-methoxy-benzoimidazol-1-yl)-phenyl]-benzamide], the IC50 (bins given with μM limit) is more than 1000 nM. On to `COc1ccc(OC)c(C(=O)Nc2ccc(-n3c(C(F)(F)F)nc4cc(OC)ccc43)cc2)c1` [Compound 130, 2,5-Dimethoxy-N-[4-(2-trifluoromethyl-5-methoxy-benzoimidazol-1-yl)-phenyl]-benzamide], for which, under “bins given with μM limit”, the IC50 was more than 1000 nM. `COc1ccc2c(c1)nc(C(F)(F)F)n2-c1ccc(NC(=O)Cc2ccc(OC)c(OC)c2)cc1` [Compound 131, 2-(3,4-dimethoxy-phenyl)-N-[4-(2-trifluoromethyl-5-methoxy-benzoimidazol-1-yl)-phenyl]-acetamide] registered an IC50 (bins given with μM limit) of more than 1000 nM. As for `CC(=O)Oc1ccc2c(c1)nc(C(F)(F)F)n2-c1ccc(NC(=O)c2cccc(F)c2F)cc1` [Compound 132, 2,3-Difluoro-N-[4-(2-trifluoromethyl-5-acetoxy-benzoimidazol-1-yl)-phenyl]-benzamide], the IC50 (bins given in nM) is less than 100 nM.

By IC50 is commonly meant the concentration needed to halve the response being measured. A lower IC50 goes with greater potency in that assay.
